Key:
Adenosine receptor A1 = molecular target: T1, Adenosine receptor A1 (Homo sapiens, UniProt P30542)
T1 sequence (P30542 whole entry): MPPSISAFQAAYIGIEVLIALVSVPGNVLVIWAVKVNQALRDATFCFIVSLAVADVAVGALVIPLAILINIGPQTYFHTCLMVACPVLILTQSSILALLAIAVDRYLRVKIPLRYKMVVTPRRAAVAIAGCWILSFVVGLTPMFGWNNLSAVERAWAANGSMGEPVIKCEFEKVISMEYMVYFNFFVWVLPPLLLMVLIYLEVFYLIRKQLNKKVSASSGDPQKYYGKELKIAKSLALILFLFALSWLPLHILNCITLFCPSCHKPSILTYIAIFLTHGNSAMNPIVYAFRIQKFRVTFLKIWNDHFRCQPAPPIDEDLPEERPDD

[1] = molecular target: T2, Alpha-1A adrenergic receptor (Homo sapiens, UniProt P35348); format: functional, cell-based
T2 sequence (P35348 whole entry): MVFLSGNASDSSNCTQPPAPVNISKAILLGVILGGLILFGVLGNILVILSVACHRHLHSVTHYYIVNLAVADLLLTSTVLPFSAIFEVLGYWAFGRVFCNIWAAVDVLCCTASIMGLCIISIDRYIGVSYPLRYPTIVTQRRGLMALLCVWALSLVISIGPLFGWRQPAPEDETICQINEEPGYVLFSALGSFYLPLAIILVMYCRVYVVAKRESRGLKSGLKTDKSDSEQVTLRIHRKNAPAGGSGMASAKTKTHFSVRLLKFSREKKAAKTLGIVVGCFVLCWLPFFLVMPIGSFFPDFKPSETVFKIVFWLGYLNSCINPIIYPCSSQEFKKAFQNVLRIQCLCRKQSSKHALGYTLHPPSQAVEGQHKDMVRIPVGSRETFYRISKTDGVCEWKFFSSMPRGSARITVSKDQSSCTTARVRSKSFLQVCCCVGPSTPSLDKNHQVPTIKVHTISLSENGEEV

Vasopressin V2 receptor = Vasopressin V2 receptor (Homo sapiens, UniProt P30518)
Chain of Vasopressin V2 receptor (P30518 whole entry): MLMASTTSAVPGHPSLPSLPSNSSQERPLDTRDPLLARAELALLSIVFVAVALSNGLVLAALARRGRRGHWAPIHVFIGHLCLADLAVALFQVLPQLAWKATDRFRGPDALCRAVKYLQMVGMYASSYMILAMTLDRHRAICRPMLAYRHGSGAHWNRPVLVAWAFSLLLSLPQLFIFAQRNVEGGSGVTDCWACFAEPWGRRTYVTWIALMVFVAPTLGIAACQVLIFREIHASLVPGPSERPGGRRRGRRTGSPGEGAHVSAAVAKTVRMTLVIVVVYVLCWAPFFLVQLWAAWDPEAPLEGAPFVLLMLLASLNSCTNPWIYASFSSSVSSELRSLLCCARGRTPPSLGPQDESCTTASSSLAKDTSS

[2] = molecular target: T3, Muscarinic acetylcholine receptor M2 (Homo sapiens, UniProt P08172); format: functional, cell-based
T3 sequence (P08172 whole entry): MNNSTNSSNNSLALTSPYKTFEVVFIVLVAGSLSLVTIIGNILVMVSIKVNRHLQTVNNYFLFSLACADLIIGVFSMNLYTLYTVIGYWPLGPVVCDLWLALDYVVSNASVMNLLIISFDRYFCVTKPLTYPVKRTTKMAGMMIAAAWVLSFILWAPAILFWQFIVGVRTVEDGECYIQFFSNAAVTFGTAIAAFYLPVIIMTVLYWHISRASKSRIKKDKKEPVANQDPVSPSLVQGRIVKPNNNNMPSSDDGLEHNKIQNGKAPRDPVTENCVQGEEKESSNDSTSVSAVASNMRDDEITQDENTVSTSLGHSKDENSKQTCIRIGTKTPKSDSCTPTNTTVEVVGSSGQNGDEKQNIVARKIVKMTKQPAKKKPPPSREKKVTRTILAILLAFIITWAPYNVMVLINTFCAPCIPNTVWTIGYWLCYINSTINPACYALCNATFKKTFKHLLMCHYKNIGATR

[3] = molecular target: Growth hormone secretagogue receptor type 1 (Homo sapiens, UniProt Q92847)
Chain of Growth hormone secretagogue receptor type 1 (Q92847 whole entry): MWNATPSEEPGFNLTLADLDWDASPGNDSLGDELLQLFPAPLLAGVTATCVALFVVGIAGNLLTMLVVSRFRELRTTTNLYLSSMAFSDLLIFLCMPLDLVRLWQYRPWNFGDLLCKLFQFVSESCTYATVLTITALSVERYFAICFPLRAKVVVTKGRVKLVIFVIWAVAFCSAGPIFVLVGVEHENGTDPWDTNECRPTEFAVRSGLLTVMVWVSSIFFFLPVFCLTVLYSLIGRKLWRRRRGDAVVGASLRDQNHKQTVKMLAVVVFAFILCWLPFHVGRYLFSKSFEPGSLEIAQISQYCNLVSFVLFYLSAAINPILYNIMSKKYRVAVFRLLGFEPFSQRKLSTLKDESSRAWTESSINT

Motilin receptor = Motilin receptor (Homo sapiens, UniProt O43193)
Chain of Motilin receptor (O43193 whole entry): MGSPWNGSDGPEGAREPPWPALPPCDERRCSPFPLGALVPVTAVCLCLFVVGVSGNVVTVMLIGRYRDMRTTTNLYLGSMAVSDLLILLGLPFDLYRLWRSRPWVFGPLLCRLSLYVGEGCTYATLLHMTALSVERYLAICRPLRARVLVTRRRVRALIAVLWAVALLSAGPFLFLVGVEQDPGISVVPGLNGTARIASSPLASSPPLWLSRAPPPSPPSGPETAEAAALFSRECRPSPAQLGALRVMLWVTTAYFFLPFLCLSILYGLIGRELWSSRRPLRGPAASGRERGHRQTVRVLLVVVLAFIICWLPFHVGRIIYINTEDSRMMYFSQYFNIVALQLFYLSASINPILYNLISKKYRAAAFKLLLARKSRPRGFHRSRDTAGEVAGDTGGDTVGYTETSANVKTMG

Glucocorticoid receptor = molecular target: T4, Glucocorticoid receptor (Homo sapiens, UniProt P04150)
T4 sequence (P04150 whole entry): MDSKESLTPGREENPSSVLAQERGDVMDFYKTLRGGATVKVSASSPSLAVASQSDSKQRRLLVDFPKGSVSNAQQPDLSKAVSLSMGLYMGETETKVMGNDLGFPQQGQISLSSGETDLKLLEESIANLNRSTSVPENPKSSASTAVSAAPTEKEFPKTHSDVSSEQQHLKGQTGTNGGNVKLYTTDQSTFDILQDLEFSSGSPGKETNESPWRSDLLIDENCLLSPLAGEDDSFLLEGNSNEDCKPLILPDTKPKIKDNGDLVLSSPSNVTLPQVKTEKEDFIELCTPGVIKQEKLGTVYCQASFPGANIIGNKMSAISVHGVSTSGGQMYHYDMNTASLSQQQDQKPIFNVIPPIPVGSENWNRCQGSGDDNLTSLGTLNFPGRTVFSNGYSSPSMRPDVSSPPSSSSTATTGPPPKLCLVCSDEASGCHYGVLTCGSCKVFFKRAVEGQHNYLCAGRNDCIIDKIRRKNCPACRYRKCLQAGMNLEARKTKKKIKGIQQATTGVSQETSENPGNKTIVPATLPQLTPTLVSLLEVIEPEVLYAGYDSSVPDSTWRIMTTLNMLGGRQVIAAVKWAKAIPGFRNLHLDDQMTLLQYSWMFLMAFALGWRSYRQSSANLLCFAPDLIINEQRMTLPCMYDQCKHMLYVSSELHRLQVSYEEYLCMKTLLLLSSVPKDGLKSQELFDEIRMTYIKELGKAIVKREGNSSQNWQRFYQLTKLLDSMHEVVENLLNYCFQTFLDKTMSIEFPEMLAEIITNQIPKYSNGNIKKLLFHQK

Thromboxane A2 receptor = molecular target: T5, Thromboxane A2 receptor (Homo sapiens, UniProt P21731)
T5 sequence (P21731 whole entry): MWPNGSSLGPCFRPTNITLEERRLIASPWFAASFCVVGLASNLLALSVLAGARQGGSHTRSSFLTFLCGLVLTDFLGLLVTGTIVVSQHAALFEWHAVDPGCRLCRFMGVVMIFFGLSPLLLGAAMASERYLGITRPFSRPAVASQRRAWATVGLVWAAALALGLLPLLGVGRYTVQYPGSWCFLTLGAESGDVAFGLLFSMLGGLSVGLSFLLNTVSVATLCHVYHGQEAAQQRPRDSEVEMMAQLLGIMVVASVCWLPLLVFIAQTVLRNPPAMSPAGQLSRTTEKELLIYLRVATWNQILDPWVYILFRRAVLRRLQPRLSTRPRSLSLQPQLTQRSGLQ

D(3) dopamine receptor = D(3) dopamine receptor (Homo sapiens, UniProt P35462)
Chain of D(3) dopamine receptor (P35462 whole entry): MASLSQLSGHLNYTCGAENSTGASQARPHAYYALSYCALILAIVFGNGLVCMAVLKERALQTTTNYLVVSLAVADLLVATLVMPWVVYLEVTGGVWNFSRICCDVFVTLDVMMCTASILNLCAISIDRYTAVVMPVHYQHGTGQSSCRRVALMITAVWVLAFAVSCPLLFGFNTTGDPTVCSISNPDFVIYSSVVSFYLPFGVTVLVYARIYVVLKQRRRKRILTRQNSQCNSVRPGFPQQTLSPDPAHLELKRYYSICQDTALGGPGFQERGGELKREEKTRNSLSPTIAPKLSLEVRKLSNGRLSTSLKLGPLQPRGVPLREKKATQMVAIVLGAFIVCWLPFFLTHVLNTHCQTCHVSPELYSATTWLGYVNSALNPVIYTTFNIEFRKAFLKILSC

[4] = molecular target: T2, Alpha-1A adrenergic receptor; format: functional, cell-based; remark: listed apart in the source
Histamine H3 receptor = Histamine H3 receptor (Homo sapiens, UniProt Q9Y5N1)
Chain of Histamine H3 receptor (Q9Y5N1 whole entry): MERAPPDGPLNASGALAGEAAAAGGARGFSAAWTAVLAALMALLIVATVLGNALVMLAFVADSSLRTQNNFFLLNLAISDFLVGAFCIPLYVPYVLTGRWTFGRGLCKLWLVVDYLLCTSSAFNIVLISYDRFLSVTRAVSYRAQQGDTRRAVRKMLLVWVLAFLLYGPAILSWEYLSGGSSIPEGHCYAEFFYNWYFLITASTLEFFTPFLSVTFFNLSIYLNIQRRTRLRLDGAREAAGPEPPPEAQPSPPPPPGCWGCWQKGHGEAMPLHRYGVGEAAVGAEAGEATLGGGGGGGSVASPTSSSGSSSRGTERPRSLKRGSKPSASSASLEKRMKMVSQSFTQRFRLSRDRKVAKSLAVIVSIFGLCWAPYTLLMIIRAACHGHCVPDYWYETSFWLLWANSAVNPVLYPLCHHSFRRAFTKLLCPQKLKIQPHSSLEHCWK
Further: assay procedure not described here.

Compound | AC50 (Adenosine receptor A1) | AC50 [1] | AC50 (Vasopressin V2 receptor) | AC50 [2] | AC50 [3] | AC50 (Motilin receptor) | AC50 (Glucocorticoid receptor) | AC50 (Thromboxane A2 receptor) | AC50 (D(3) dopamine receptor) | AC50 [4] | AC50 (Histamine H3 receptor)
O=C1CN2Cc3c(ccc(Cl)c3Cl)N=C2N1 [ANAGRELIDE] | > 30 µM | > 30 µM | > 30 µM | > 10 µM | > 30 µM | > 10 µM | > 30 µM | > 30 µM | > 30 µM | > 30 µM | > 10 µM
CNCC[C@@H](Oc1ccccc1C)c1ccccc1 [ATOMOXETINE] | > 30 µM | > 30 µM | > 30 µM |  | > 30 µM | > 30 µM | > 30 µM | > 30 µM | 26 µM | > 30 µM | 30 µM
CCc1oc2ccccc2c1C(=O)c1cc(Br)c(O)c(Br)c1 [BENZBROMARONE] | > 30 µM | > 30 µM | > 30 µM |  | > 30 µM | > 30 µM | 11 µM | 29 µM | > 30 µM | 2.65 µM | > 30 µM
CO/N=C(\C(=O)N[C@@H]1C(=O)N2C(C(=O)O)=C(COC(N)=O)CS[C@H]12)c1ccco1 [CEFUROXIME] | > 30 µM | > 30 µM | > 30 µM | > 30 µM | > 30 µM | > 30 µM | > 30 µM |  | > 30 µM | > 30 µM | > 30 µM
[H]/N=C(\N/C(=N/[H])NCCCCCCNC(=N)NC(=N)Nc1ccc(Cl)cc1)Nc1ccc(Cl)cc1 [CHLORHEXIDINE] | > 30 µM | > 30 µM | 3.9 µM |  | 1 µM | 0.784 µM | > 30 µM | > 30 µM | 3.2 µM | 0.6 µM | 
Clc1cccc(Cl)c1N=C1NCCN1 [CLONIDINE] | > 30 µM |  | > 30 µM | > 10 µM | > 30 µM | > 10 µM | > 30 µM | > 30 µM | > 10 µM |  | > 10 µM
COC(=O)[C@H](c1ccccc1Cl)N1CCc2sccc2C1 [CLOPIDOGREL] | > 30 µM | > 30 µM | > 30 µM | 27 µM | > 30 µM | > 30 µM | > 30 µM | > 30 µM | > 30 µM | > 30 µM | > 30 µM
CN1C[C@H](C(=O)N[C@]2(C)O[C@@]3(O)[C@@H]4CCCN4C(=O)[C@H](Cc4ccccc4)N3C2=O)C[C@@H]2c3cccc4[nH]cc(c34)C[C@H]21 [DIHYDROERGOTAMINE] | > 30 µM | 1.7 µM | > 30 µM | > 10 µM | 4.39 µM | > 10 µM | > 30 µM | 13.7 µM | 0.055 µM |  | > 10 µM
